Source: patent publication US10196357B2, “Biaryl compositions and methods for modulating a kinase cascade” (Athenex, Inc., priority 2007, dated 2019)
Like-named read-outs stand apart in the source and are kept apart here.

Key:
[1] = tested on: Shc Y239/240; assay: intracellular phosphorylation, Shc Y239/240; type: cell-based; conditions: whole cells
Description: HT29 (colon cancer) and c-Src527F/NIH-3T3 (Src transformed) cell lines were treated with KX2-391 or with AstraZeneca's ATP competitive Src inhibitor AZ28. AZ28 serves as a positive comparator to show what a validated Src inhibitor should do in these assays. After treatment with compound, cells were lysed, subjected to PAGE and probed with a battery of antibodies. […] In addition, off-target protein phosphorylation was also investigated. Further, induction of apoptosis was evaluated via Caspase 3 cleavage. Multiple doses of each compound were tested because the trends in response to increasing drug concentration are the most reliable indicator of activity.
The same range of multiples of the GI50 for AZ28 in these two cell lines was run as a comparison.
KX2-391 and AZ28 inhibited Src transphosphorylation.

[2] = brain exposure after oral administration; type: in vivo, male CD-1 mice; conditions: for AUClast: Brain; for Kp: brain and plasma, read-out: AUClast Brain/AUClast Plasma Ratio
Description: Plasma concentrations were measured in mice after oral administration. All doses were formulated in purified water. Four groups of male CD-1 mice were dosed after an overnight fast and fed 4 hours post-dose. Dosing was as follows:
Protein was precipitated with 0.25 mL acetonitrile for plasma, 0.25 mL for brain. After centrifugation, supernatant was directly injected into an LC/MS system. The limit of quantitation was 1 ng/mL using a 50 μL aliquot for plasma and a 50 μL, aliquot for brain. The standard curve was 1 to 1,000 ng/mL for both plasma and brain. HPLC conditions were as follows:
HPLC System: Shimadzu SCL-10 System
• Analytical Column: Aquasil C18 5 μm 100×2 mm column. • Column Temperature: Ambient temperature • Autosampler Temperature: Ambient temperature • Mobile Phase A) 10 mM Ammonium formate in water (pH 4). • B) Acetonitrile. • Flow Rate: 0.6 mL/min • Injection Volume: 2 μL • Gradient:
• Mass Spectrometry Conditions were as follows: • Instrument: ABI Sciex API 4000 • Mode: ESI+ • Experiment: MRM (multiple reaction monitoring) • Transitions: KX2-391: m/z 432.4→114.2 (Rt=3.11 minute) • KX2-361: m/z 406.1→253.2 (Rt=3.33 minute)

[3] = male, CD-1, mouse, brain, po, 10 mg/kg, single PO dose 10 mg/kg (Group 1), read-out: Brain Concentrations, Group A, B, C
[4] = male, CD-1, mouse, brain, po, 10 mg/kg, single PO dose 10 mg/kg (Group 1), read-out: Brain Concentrations, Mean
[5] = male, CD-1, mouse, brain, po, 50 mg/kg, Male CD-1 mice, single PO dose 50 mg/kg (Group 4), Group A, read-out: KX2-391 Brain Concentrations, Group A
[6] = male, CD-1, mouse, brain, po, 50 mg/kg, Male CD-1 mice, single PO dose 50 mg/kg (Group 4), Group B, read-out: KX2-391 Brain Concentrations, Group B
[7] = male, CD-1, mouse, brain, po, 50 mg/kg, Male CD-1 mice, single PO dose 50 mg/kg (Group 4), Group C, read-out: KX2-391 Brain Concentrations, Group C
[8] = male, CD-1, mouse, brain, po, 50 mg/kg, Male CD-1 mice, single PO dose 50 mg/kg (Group 4), Mean, read-out: KX2-391 Brain Concentrations, Mean

## O=C(Cc1ccc(-c2ccc(OCCN3CCOCC3)cc2)cn1)NCc1ccccc1 [KX2-391]
[1]
  phosphorylation of Shc Y239/240 (Src transphosphorylation): inhibited
[2]; single oral dose 10 mg/kg
  AUClast: 631 ng·h/g
[2]; single oral dose 50 mg/kg
  AUClast: 4211 ng·h/g
[2]; Male CD-1 mice, single PO dose 50 mg/kg (Group 4), 0 hr, Group A
  KX2-391 Brain Concentrations, Group A: BLQ (BLQ: Below Limit of Quantitation (1 ng/mL))
[2]; Male CD-1 mice, single PO dose 50 mg/kg (Group 4), 0 hr, Group B
  KX2-391 Brain Concentrations, Group B: BLQ (BLQ: Below Limit of Quantitation (1 ng/mL))
[2]; Male CD-1 mice, single PO dose 50 mg/kg (Group 4), 0 hr, Group C
  KX2-391 Brain Concentrations, Group C: BLQ (BLQ: Below Limit of Quantitation (1 ng/mL))
[2]; male, CD-1, mouse, single oral dose 10 mg/kg
  Kp: 0.42
[2]; male, CD-1, mouse, single oral dose 50 mg/kg
  Kp: 0.39
[2]; [3]
  concentration at 0.5 h: 398 ng/g
  concentration at 2 h: 126 ng/g
  concentration at 5 h: 67.7 ng/g
[2]; [4]
  concentration at 0.5 h: 398 ng/g
  concentration at 2 h: 98.5 ng/g
  concentration at 5 h: 71.4 ng/g
[2]; male, CD-1, mouse, brain, po, 10 mg/kg, single PO dose 10 mg/kg (Group 1), 1 hr, read-out: Brain Concentrations, Mean
  concentration at 1 h: 170 ng/g
[2]; male, CD-1, mouse, brain, po, 50 mg/kg, Male CD-1 mice, single PO dose 50 mg/kg (Group 4), 0 hr, Mean, read-out: KX2-391 Brain Concentrations, Mean
  concentration at 0 hr: 0 ng/g
[2]; [5]
  concentration at 0.5 hr: 960 ng/g
  concentration at 2 hr: 414 ng/g
[2]; [6]
  concentration at 0.5 hr: 2120 ng/g
  concentration at 2 hr: 986 ng/g
[2]; [7]
  concentration at 0.5 hr: 1050 ng/g
  concentration at 2 hr: 874 ng/g
[2]; [8]
  concentration at 0.5 hr: 1380 ng/g
  concentration at 2 hr: 758 ng/g
[2]; male, CD-1, mouse, brain, po, 50 mg/kg, Male CD-1 mice, single PO dose 50 mg/kg (Group 4), 1 hr, Group A, read-out: KX2-391 Brain Concentrations, Group A
  concentration at 1 hr: 851 ng/g
[2]; male, CD-1, mouse, brain, po, 50 mg/kg, Male CD-1 mice, single PO dose 50 mg/kg (Group 4), 1 hr, Group B, read-out: KX2-391 Brain Concentrations, Group B
  concentration at 1 hr: 1890 ng/g
[2]; male, CD-1, mouse, brain, po, 50 mg/kg, Male CD-1 mice, single PO dose 50 mg/kg (Group 4), 1 hr, Group C, read-out: KX2-391 Brain Concentrations, Group C
  concentration at 1 hr: 549 ng/g
[2]; male, CD-1, mouse, brain, po, 50 mg/kg, Male CD-1 mice, single PO dose 50 mg/kg (Group 4), 1 hr, Mean, read-out: KX2-391 Brain Concentrations, Mean
  concentration at 1 hr: 1100 ng/g
